Assay results from PubChem BioAssay AID2202558 (NIEHS Division of Translational Toxicology (DTT)).
Results filed as inconclusive are left out. The source made the active and inactive calls. How the calls were made is not given here. *1 amine or outer side, *2 acyl side, *3 side chain or, on linkers, in order; H or OH if unused. Where a SMILES comes first, the peptide text is derived from it. Bridges are numbered along the chain shown (N, C = ends). Roman numbers before positions name the chains, in order. [ ]: non-standard residue; d: D form. Actinocin(9to1) = Cc1c2oc3c(C)ccc(C(=O)[*:1])c3nc-2c(C(=O)[*:2])c(N)c1=O; NMeV = CN[C@H](C(=O)O)C(C)C; Sar = CNCC(=O)O

Tested on: mouse/rat in vivo micronucleus assay, summary call
Test: In vivo micronucleus assay summary data
Text: The erythrocyte micronucleus test examines the ability of substances to cause chromosome damage in developing red blood cells inside bone marrow. A micronucleus (literally, "little nucleus") is a biomarker of structural chromosome damage (e.g., breaks) and changes in chromosome number (e.g., chromosome loss). If a chromosome is broken or fails to migrate properly with other chromosomes during cell division, the broken piece or lost chromosome will form a small (micro) nucleus of its own in one of the two daughter cells produced. Detection of chromosomal damage is important because it has been linked to birth defects, infertility, and certain diseases, including cancer.
The micronucleus test is performed in rapidly dividing cell populations, and bone marrow is a site of rapid blood cell division. Both bone marrow and peripheral blood samples can be examined for the presence of micronuclei in red blood cells.
Animals are treated with a test substance once or daily over a period of time, and the frequency of micronucleated cells is determined 24-48 hours after the final treatment, depending on the source of the cells (bone marrow or blood) that are examined and the treatment regimen.
The test subjects are rodents (rats or mice) that are exposed to the test substance, usually by oral gavage or injection. Typically, one to three daily treatments of the test substance are administered over a range of doses; the highest dose tested is near the maximum tolerated dose. Groups of negative and positive control animals are included for each test. Bone marrow samples are obtained from all animals 24 hours after the last treatment, and red blood cells are examined for the presence of micronuclei.
B. Peripheral Blood Tests
Micronucleus tests are performed on male and female rodents that are exposed to the test substance orally, dermally, or by inhalation in subchronic (e.g., 28 or 90 days) or short term (e.g., 48-72 hours) toxicity studies. 24 to 48 hours after the final exposure, peripheral blood samples are obtained and red blood cells are examined for the presence of micronuclei. Samples may be examined using standard slide scoring procedures or automated flow cytometric approaches. Since 2007, NTP has routinely relied on flow cytometry to evaluate the frequency of micronucleated cells in peripheral blood.
Peripheral blood micronucleus assays are typically integrated into all NTP toxicity studies, and they also lend themselves to serial monitoring of micronucleus frequencies over time, since blood samples can be obtained without the need to sacrifice the animals.
Blood or bone marrow samples from treated animals are compared to samples from untreated animals. With the slide-based approach for data acquisition, 1000-2000 cells were scored per animal. Using flow cytometric procedures to evaluate blood samples, 20,000 immature red blood cells and around one million mature red blood cells are examined per animal, resulting in a marked increase in the ability to detect small changes in the frequency of micronucleated red blood cells. The data is analyzed using statistical methods to determine if there is a significant increase in the frequency of cells containing micronuclei. Both dose-related responses and the magnitude of response for each independent dose group are considered during the evaluation of the data. For a positive test, both a significant dose response (trend) and at least one significant dose group are required. If only one of these measures is present, the test is determined to be questionable. The absence of either condition results in a negative test. The final conclusions for micronucleus tests are determined by considering the results of statistical analyses, reproducibility of any observed effects, and the magnitude of the effects. Ultimately, both the biological significance as well as statistical significance is considered when reaching a final conclusion.
[…]

Q: `CC(C)c1ccccc1` was tested. Which outcome did it give?
A: active; negative

Q: How did the outcome turn out when `C=CC(=C)C` was run?
A: active; positive

Q: `NC(=O)c1ncn([C@@H]2O[C@H](CO)[C@@H](O)[C@H]2O)n1` was tested. Which outcome did it give?
A: active; positive

Q: `[O]=[Sb][O][Sb]=[O]` was tested. Which outcome did it give?
A: active; positive

Q: Which outcome does the source give for `CCC(=O)C(C)=O` here?
A: inactive; negative

Q: For `CC(C)(C)c1ccc(O)c(O)c1`, which outcome is on record?
A: inactive; negative

Q: With `Nc1nc(=S)c2[nH]cnc2[nH]1` as the compound, how does the outcome read?
A: active; positive

Q: `CC#N` was tested. Which outcome did it give?
A: active; positive

Q: Which outcome does the source give for `Nc1ccc(Cl)cc1` here?
A: active; positive

Q: Which outcome does the source give for `CC=Cc1ccc(O)c(OC)c1` here?
A: active; positive

Q: `CCCCn1cc[n+](C)c1` was tested. Which outcome did it give?
A: inactive; negative

Q: How did the outcome turn out when `CCOS(C)(=O)=O` was run?
A: active; positive

Q: `C1CN1c1nc(N2CC2)nc(N2CC2)n1` was tested. Which outcome did it give?
A: active; positive

Q: With `Cc1ccc(S(N)(=O)=O)cc1` as the compound, how does the outcome read?
A: inactive; negative

Q: Which outcome does the source give for `O=C(O)C=Cc1ccc(O)c(O)c1` here?
A: active; positive

Q: How did the outcome turn out when `Oc1cccc(O)c1` was run?
A: active; positive

Q: How did the outcome turn out when `CCCCCCc1ccc(O)cc1O` was run?
A: active; positive

Q: Which outcome does the source give for `COc1cc(Cc2cnc(N)nc2N)cc(OC)c1OC` (tested in a mixture with another compound) here?
A: active; positive

Q: With `COc1cccc2c1C(=O)c1c(O)c3c(c(O)c1C2=O)C[C@@](O)(C(=O)CO)C[C@@H]3O[C@H]1C[C@H](N)[C@H](O)[C@H](C)O1` as the compound, how does the outcome read?
A: active; positive

Q: With `O=C(O)CS` as the compound, how does the outcome read?
A: active; positive

Q: With `ClCCOCOCCCl` as the compound, how does the outcome read?
A: inactive; negative

Q: How did the outcome turn out when `O=[N+]([O-])C(Br)=Cc1ccccc1` was run?
A: active; positive

Q: `Oc1ccc(/C=C/c2cc(O)cc(O)c2)cc1` was tested. Which outcome did it give?
A: inactive; negative

Q: With `Cc1cn([C@H]2C[C@H](N=[N+]=[N-])[C@@H](CO)O2)c(=O)[nH]c1=O` as the compound, how does the outcome read?
A: active; positive

Q: `CC[n+]1c(-c2ccccc2)c2cc(N)ccc2c2ccc(N)cc21` was tested. Which outcome did it give?
A: inactive; negative

Q: `Nc1cc([N+](=O)[O-])ccc1O` was tested. Which outcome did it give?
A: inactive; negative

Q: How did the outcome turn out when `CN(C)CCC(c1ccc(Cl)cc1)c1ccccn1` (stereo not given) was run?
A: inactive; negative

Q: Which outcome does the source give for `C=C(C)c1ccccc1` here?
A: active; positive

Q: For `O=C1c2cccc(O)c2C(=O)c2c(O)cccc21`, which outcome is on record?
A: inactive; negative

Q: How did the outcome turn out when `CC/C(=C(/CC)c1ccc(O)cc1)c1ccc(O)cc1` was run?
A: active; positive

Q: `Oc1ccc(O)cc1` was tested. Which outcome did it give?
A: active; positive

Q: `C=CC(=O)OCC(CO)(COC(=O)C=C)COC(=O)C=C` was tested. Which outcome did it give?
A: active; positive

Q: `C=C(C)C#N` was tested. Which outcome did it give?
A: inactive; negative

Q: For `CN(C)C(=O)Nc1ccc(Cl)cc1`, which outcome is on record?
A: active; positive

Q: With `Nc1ccn([C@H]2CC[C@@H](CO)O2)c(=O)n1` as the compound, how does the outcome read?
A: active; positive

Q: How did the outcome turn out when `FC(F)(F)c1ccc(Cl)cc1` was run?
A: active; positive

Q: With `CC(C)C=O` as the compound, how does the outcome read?
A: inactive; negative

Q: `O=C1C=CCCC1` was tested. Which outcome did it give?
A: inactive; negative

Q: `C=CC(=O)CC` was tested. Which outcome did it give?
A: inactive; negative

Q: Which outcome does the source give for `Cc1ncc[nH]1` here?
A: active; positive

Q: How did the outcome turn out when `O=C(O)CCCc1ccc(N(CCCl)CCCl)cc1` was run?
A: active; positive

Q: For `Cc1c2oc3c(C)ccc(C(=O)N[C@@H]4C(=O)N[C@H](C(C)C)C(=O)N5CCC[C@H]5C(=O)N(C)CC(=O)N(C)[C@@H](C(C)C)C(=O)O[C@@H]4C)c3nc-2c(C(=O)N[C@@H]2C(=O)N[C@H](C(C)C)C(=O)N3CCC[C@H]3C(=O)N(C)CC(=O)N(C)[C@@H](C(C)C)C(=O)O[C@@H]2C)c(N)c1=O` (I: T[dV]P[Sar][NMeV] / II: T[dV]P[Sar][NMeV]; ester I:1-I:C, II:1-II:C; linker I:N-II:N via Actinocin(9to1)), which outcome is on record?
A: active; positive

Q: `CC[C@H](CC[C@@H](C)[C@H]1CC[C@H]2[C@@H]3CC=C4C[C@@H](O)CC[C@]4(C)[C@H]3CC[C@]12C)C(C)C` was tested. Which outcome did it give?
A: inactive; negative

Q: For `C=C(C#N)C(=O)OCC`, which outcome is on record?
A: inactive; negative

Q: Which outcome does the source give for `C=COC(C)=O` here?
A: active
